Structures can show the parent of a compound that is named as a salt.
Experiments:
[1] = target: recombinant BACE1 protein (Homo sapiens, UniProt P56817); test: Biochemical FRET based assay; settings: recombinant BACE1 1 μg/ml, 120 min, pH 5.0; for IC50: read-out: Biochemical FRET based assay pIC50 (converted)
Text: Biochemical FRET Based Assay
This assay is a Fluorescence Resonance Energy Transfer Assay (FRET) based assay. The substrate for this assay is an APP derived 13 amino acids peptide that contains the ‘Swedish’ Lys-Met/Asn-Leu mutation of the amyloid precursor protein (APP) β-secretase cleavage site. This substrate also contains two fluorophores: (7-methoxycoumarin-4-yl)acetic acid (Mca) is a fluorescent donor with excitation wavelength at 320 nm and emission at 405 nm and 2,4-Dinitrophenyl (Dnp) is a proprietary quencher acceptor. […] Upon cleavage by BACE1, the fluorophore Mca is separated from the quenching group Dnp, restoring the full fluorescence yield of the donor. The increase in fluorescence is linearly related to the rate of proteolysis (Koike H et al. J. Biochem. 1999, 126, 235-242). Briefly in a 384-well format recombinant BACE1 protein in a final concentration of 1 μg/ml is incubated for 120 min at room temperature with 10 μm substrate in incubation buffer (40 mM Citrate buffer pH 5.0, 0.04% PEG, 4% DMSO) in the absence or presence of compound. Next the amount of proteolysis is directly measured by fluorescence measurement at T=0 and T=120 (excitation at 320 nm and emission at 405 nm).

[2] = test system: Aβtotal produced and secreted into the medium of human neuroblastoma SKNBE2 cells; test: Cellular αlisa assay in SKNBE2 cells, Aβtotal; type: cell-based; settings: SKNBE2 cells expressing hAPP695, 18 hours incubation; for IC50: Homo sapiens, SKNBE2, 18 h, read-out: Cellular αlisa assay in SKNBE2 cells Aβtotal pIC50 (converted)
Procedure: (§1) Cellular αlisa Assay in SKNBE2 Cells
(§2) In two αlisa assays the levels of Aβtotal and Aβ42 produced and secreted into the medium of human neuroblastoma SKNBE2 cells are quantified. The assay is based on the human neuroblastoma SKNBE2 expressing the wild type Amyloid Precursor Protein (hAPP695). The compounds are diluted and added to these cells, incubated for 18 hours and then measurements of Aβ42 and Aβtotal are taken. Aβtotal and Aβ42 are measured by sandwich αlisa. αlisa is a sandwich assay using biotinylated antibody AbN/25 attached to streptavidin coated beads and antibody Ab4G8 or cAb42/26 conjugated acceptor beads for the detection of Aβtotal and Aβ42 respectively. In the presence of Aβtotal or Aβ42, the beads come into close proximity. The excitation of the Donor beads provokes the release of singlet oxygen molecules that triggers a cascade of energy transfer in the Acceptor beads, resulting in light emission. Light emission is measured after 1 hour incubation (excitation at […] and emission at 615 nm).
(§3) A best-fit curve is fitted by a minimum sum of squares method to the plot of % Controlmin versus compound concentration.

[3] = test system: Aβ42 produced and secreted into the medium of human neuroblastoma SKNBE2 cells; test: Cellular αlisa assay in SKNBE2 cells, Aβ42; type: cell-based; settings: SKNBE2 cells expressing hAPP695, 18 hours incubation; for IC50: Homo sapiens, SKNBE2, 18 h, read-out: Cellular αlisa assay in SKNBE2 cells Aβ42 pIC50 (converted)
Procedure: as §1, §2, §3

Chain of recombinant BACE1 protein (P56817 46-501): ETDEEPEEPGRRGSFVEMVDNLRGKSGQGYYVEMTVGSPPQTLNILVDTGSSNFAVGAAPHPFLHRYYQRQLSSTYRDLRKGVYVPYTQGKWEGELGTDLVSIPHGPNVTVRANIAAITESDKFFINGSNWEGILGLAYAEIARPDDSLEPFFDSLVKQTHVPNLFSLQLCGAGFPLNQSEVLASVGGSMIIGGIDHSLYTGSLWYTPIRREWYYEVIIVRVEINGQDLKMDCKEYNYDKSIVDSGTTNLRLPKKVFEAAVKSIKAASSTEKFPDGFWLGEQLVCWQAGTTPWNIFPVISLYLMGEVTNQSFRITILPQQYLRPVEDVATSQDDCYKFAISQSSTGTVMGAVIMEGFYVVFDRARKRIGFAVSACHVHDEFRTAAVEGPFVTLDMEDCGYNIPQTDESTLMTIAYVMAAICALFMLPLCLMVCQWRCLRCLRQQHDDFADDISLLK

Structure (SMILES) | IC50 [1] | Cellular αlisa assay in SKNBE2 cells Aβtotal pIC50 [2] | Cellular αlisa assay in SKNBE2 cells Aβ42 pIC50 [3] | Biochemical FRET based assay pIC50 [1] | IC50 [2] | IC50 [3]
CC1(c2cc(NC(=O)c3ncc(Cl)cc3Cl)ccc2F)Cn2nccc2C(N)=N1 (single isomer, unassigned) [Compound 15, (R*)-3,5-dichloro-pyridine-2-carboxylic acid [3-(4-amino-6-methyl-6,7-dihydro-pyrazolo[1,5-a]pyrazin-6-yl)-4-fluoro-phenyl]-amide] | 18.6 nM | 9.37 | 9.33 | – | – | –
Cc1nc(C(=O)Nc2ccc(F)c(C3(C)Cn4ncc(F)c4C(N)=N3)c2)c(C(F)(F)F)o1 (stereo not drawn) [Compound 35] | – | 7.30 | 7.33 | 6.91 | – | –
NC1=NC(c2cc(NC(=O)c3ccc(F)cn3)ccc2F)(C(F)F)Cn2nccc21 (single isomer, unassigned) [Compound 21, (S*)-5-fluoro-pyridine-2-carboxylic acid [3-(4-amino-6-difluoromethyl-6,7-dihydro-pyrazolo[1,5-a]pyrazin-6-yl)-4-fluoro-phenyl]-amide] | > 30200 nM | <5 | <5 | – | – | –
Cc1nc(C(=O)Nc2ccc(F)c(C3(C)Cn4ncc(F)c4C(N)=N3)c2)c(C)o1 (stereo not drawn) [Compound 36] | – | 7.53 | 7.56 | 7.04 | – | –
COc1cnc(C(=O)Nc2cccc(C3(C)Cn4nc(C(F)(F)F)cc4C(N)=N3)c2)cn1 (racemic) [Compound 30] | – | 7.45 | 7.43 | 6.77 | – | –
Cc1nn2c(c1F)C(N)=NC(C)(c1cc(NC(=O)c3ccc(F)cn3)ccc1F)C2 (racemic) [Compound 41] | – | 7.67 | 7.69 | 6.93 | – | –
CC1(c2cccc(NC(=O)c3ccc(Cl)cn3)c2)Cn2nccc2C(N)=N1 (racemic) [Compound 2, rac-5-chloro-pyridine-2-carboxylic acid [3-(4-amino-6-methyl-6,7-dihydro-pyrazolo[1,5-a]pyrazin-6-yl)-phenyl]-amide] | 83.2 nM | – | – | – | 2.45 nM | 3.24 nM
CC1(c2cccc(NC(=O)c3ncc(Cl)cc3Cl)c2)Cn2nccc2C(N)=N1 (racemic) [Compound 3, rac-3,5-dichloro-pyridine-2-carboxylic acid [3-(4-amino-6-methyl-6,7-dihydro-pyrazolo[1,5-a]pyrazin-6-yl)-phenyl]-amide] | 46.8 nM | – | – | – | 3.39 nM | 3.24 nM
COc1cnc(C(=O)Nc2cccc(C3(C)Cn4nc(C(F)(F)F)cc4C(N)=N3)c2)cn1 (single isomer, unassigned) [Compound 31] | – | 5.61 | 5.58 | 4.97 | – | –
CC1(c2cc(NC(=O)c3ccn(C(F)F)n3)ccc2F)Cn2nc(C(F)F)cc2C(N)=N1 (stereo not drawn) [Compound 40] | – | 8.37 | 8.42 | 7.28 | – | –
COc1cnc(C(=O)Nc2ccc(F)c(C3(C(F)F)Cn4nccc4C(N)=N3)c2)cn1 (single isomer, unassigned) [Compound 19, (S*)-5-methoxy-pyrazine-2-carboxylic acid [3-(4-amino-6-difluoromethyl-6,7-dihydro-pyrazolo[1,5-a]pyrazin-6-yl)-4-fluoro-phenyl]-amide] | 9770 nM | 5.13 | 5.28 | – | – | –
C[C@@]1(c2cc(NC(=O)c3ccc(C#N)cn3)ccc2F)Cn2nc(C#N)cc2C(N)=N1 [Compound 26, (R)-5-cyano-pyridine-2-carboxylic acid [3-(4-amino-2-cyano-6-methyl-6,7-dihydro-pyrazolo[1,5-a]pyrazin-6-yl)-4-fluoro-phenyl]-amide] | 49 nM | – | – | – | 1.45 nM | 1.48 nM
CC1(c2cccc(NC(=O)c3ncc(Cl)cc3Cl)c2)Cn2nc(C(F)(F)F)cc2C(N)=N1 (single isomer, unassigned) [Compound 12, (S*)-3,5-dichloro-pyridine-2-carboxylic acid [3-(4-amino-6-methyl-2-trifluoromethyl-6,7-dihydro-pyrazolo[1,5-a]pyrazin-6-yl)-phenyl]-amide] | 8710 nM | 5.75 | 5.64 | – | – | –
CC1(c2cccc(NC(=O)c3ccc(C#N)cn3)c2)Cn2ncc(Br)c2C(N)=N1 (racemic) [Compound 9, rac-5-cyano-pyridine-2-carboxylic acid [3-(4-amino-3-bromo-6-methyl-6,7-dihydro-pyrazolo[1,5-a]pyrazin-6-yl)-phenyl]-amide trifluorocetate salt] | 7940 nM | – | – | – | 871 nM | 1000 nM
Cc1nc(C(=O)Nc2ccc(F)c(C3(C)Cn4nc(C#N)cc4C(N)=N3)c2)co1 (stereo not drawn) [Compound 43] | – | 8.70 | 8.72 | 7.53 | – | –
CC1(c2cc(NC(=O)c3ncc(Cl)cc3Cl)ccc2F)Cn2nccc2C(N)=N1 (racemic) [Compound 14, rac-3,5-dichloro-pyridine-2-carboxylic acid [3-(4-amino-6-methyl-6,7-dihydro-pyrazolo[1,5-a]pyrazin-6-yl)-4-fluoro-phenyl]-amide] | 35.5 nM | – | – | – | 1.17 nM | 1.35 nM
